Here are results for one compound from article PMC5842439 (Nuclear medicine and biology, 2013).

This test has as its system BT474 xenografts. Conditions: for tumor SUV, % of pretreatment SUV: mice without DOX (n=8), mean±SD.

Like-named read-outs stand apart in the source and are kept apart here.

As to `OC[C@H]1OC(O)[C@H]([18F])[C@@H](O)[C@@H]1O` (stereo partly shown) [Agent F-18-FDG, 2’-F-18-fluorodeoxyglucose], the “muscle uptake in contralateral normal thigh” value (PET imaging, mouse bearing BT474 tumor in the right thigh) is reported as “significant”. Besides, the “tumor SUV, % of pretreatment SUV” value runs as follows: (3rd week) 108±28%; (5th week) 151±8%; (7th week) 152±355%.
